Results from PMC6222323, “Exploiting the Chalcone Scaffold to Develop Multifunctional Agents for Alzheimer’s Disease” (Molecules : A Journal of Synthetic Chemistry and Natural …, 2018).

Assays:
[1] = target: BuChE from human serum (hBuChE) (Homo sapiens, UniProt P06276); assay: biochemical; format: biochemical; conditions: for IC50: read-out: IC50 (µM) ± SEM hBuChE
[2] = target: human recombinant AChE (hAChE) (Homo sapiens, UniProt P22303); assay: biochemical; format: biochemical; conditions: for SI: selectivity index for AChE: calculated as IC50 hBuChE/hAChE ratio; for IC50: read-out: IC50 (µM) ± SEM hAChE
SH-SY5Y cells [3] = assay: Antioxidant activity, ROS formation induced by t-BuOOH (H2DCF-DA probe); format: cell-based; conditions: Homo sapiens, 1.25 µM compound for 24 h, then t-BuOOH 100 µM for 30 min, read-out: inhibition percentage in ROS formation induced by t-BuOOH
SH-SY5Y cells [4] = assay: Neuroprotective activity toward Aβ1–42 oligomers, MTT formazan exocytosis assay; format: cell-based, human; conditions: 1.25 µM compound with OAβ1–42 10 µM for 4 h
SH-SY5Y cells [5] = assay: Glutathione (GSH) levels (MCB probe); format: cell-based, human; conditions: 1.25 µM compound for 24 h, vs. control
SH-SY5Y cells [6] = format: cell-based; conditions: 24 h treatment, 2.5–80 µM tested, MTT assay, SH-SY5Y cells (data not shown)
[7] = BuChE from human serum, 20 min preincubation at 37 °C, pH 8.0, n.a. = not active, inhibition lower than 15% at the highest tested concentration
[8] = human recombinant AChE, 20 min preincubation at 37 °C, pH 8.0, n.a. = not active, inhibition lower than 15% at the highest tested concentration

Sequence of BuChE from human serum (hBuChE) (P06276 29-602): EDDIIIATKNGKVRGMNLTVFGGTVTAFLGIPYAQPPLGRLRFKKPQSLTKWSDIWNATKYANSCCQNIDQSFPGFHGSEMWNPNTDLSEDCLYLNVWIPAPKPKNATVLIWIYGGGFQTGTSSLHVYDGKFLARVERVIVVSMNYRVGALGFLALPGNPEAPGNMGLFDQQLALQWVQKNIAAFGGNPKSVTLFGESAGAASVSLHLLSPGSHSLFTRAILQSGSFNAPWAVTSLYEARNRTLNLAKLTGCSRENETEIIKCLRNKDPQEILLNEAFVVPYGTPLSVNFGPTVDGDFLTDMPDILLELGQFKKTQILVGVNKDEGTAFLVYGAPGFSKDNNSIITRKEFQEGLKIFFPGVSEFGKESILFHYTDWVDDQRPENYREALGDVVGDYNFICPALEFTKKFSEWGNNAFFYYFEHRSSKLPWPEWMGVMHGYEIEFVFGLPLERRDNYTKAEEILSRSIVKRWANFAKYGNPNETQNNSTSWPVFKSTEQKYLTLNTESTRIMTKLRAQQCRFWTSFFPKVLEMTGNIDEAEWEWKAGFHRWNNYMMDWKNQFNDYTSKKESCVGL
Sequence of human recombinant AChE (hAChE) (P22303 32-614): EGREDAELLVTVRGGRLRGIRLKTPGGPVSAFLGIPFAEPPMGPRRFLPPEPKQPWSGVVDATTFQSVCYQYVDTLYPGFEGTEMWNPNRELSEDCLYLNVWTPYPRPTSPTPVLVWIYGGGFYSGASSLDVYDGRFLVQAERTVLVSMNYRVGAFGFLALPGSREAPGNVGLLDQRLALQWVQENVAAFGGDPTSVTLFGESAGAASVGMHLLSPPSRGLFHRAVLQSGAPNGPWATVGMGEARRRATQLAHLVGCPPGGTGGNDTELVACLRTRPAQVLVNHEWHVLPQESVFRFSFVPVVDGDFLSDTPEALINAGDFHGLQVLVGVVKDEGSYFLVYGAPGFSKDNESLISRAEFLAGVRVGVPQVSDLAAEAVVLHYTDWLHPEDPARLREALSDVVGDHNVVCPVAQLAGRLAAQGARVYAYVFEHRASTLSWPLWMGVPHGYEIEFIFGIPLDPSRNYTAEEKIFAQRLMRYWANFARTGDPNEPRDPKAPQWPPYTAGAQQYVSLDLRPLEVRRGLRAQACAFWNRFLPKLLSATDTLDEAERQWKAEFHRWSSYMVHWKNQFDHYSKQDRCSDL

Compound: CN(CCCCCCCOc1ccc(C=CC(=O)c2ccc(OCCN3CCCCC3)cc2)cc1)Cc1ccccc1 [compound 7, 3-(4-((7-(Benzyl(methyl)amino)heptyl)oxy)phenyl)-1-(4-(2-(piperidin-1-yl)ethoxy)phenyl)prop-2-en-1-one]
- IC50 [1, 7]: 19.7 ± 0.6 µM
- SI: selectivity index for AChE [2]: 15.8
- IC50 [2, 8]: 1.25 ± 0.06 µM

Compound: CN(CCCCCCCOc1ccc(C=CC(=O)c2ccc(OCCN3CCC(c4ccccc4)CC3)cc2)cc1)Cc1ccccc1 [compound 10, 3-(4-((7-(Benzyl(methyl)amino)heptyl)oxy)phenyl)-1-(4-(2-(4-phenylpiperidin-1-yl)ethoxy)-phenyl)prop-2-en-1-one]
- IC50 (µM) ± SEM hBuChE [1, 7]: inactive
- IC50 (µM) ± SEM hAChE [2, 8]: inactive

Compound: CN(CCCCCCCOc1ccc(C=CC(=O)c2ccc(OCCN3CCC(n4c(=O)[nH]c5ccccc54)CC3)cc2)cc1)Cc1ccccc1 [compound 9, 1-(1-(2-(4-(3-(4-((7-(Benzyl(methyl)amino)heptyl)oxy)phenyl)acryloyl)phenoxy)ethyl)-piperidin-4-yl)-1,3-dihydro-2H-benzo[d]imidazol-2-one]
- IC50 [1, 7]: 3.93 ± 0.2 µM
- SI: selectivity index for AChE [2]: 0.29
- IC50 [2, 8]: 13.5 ± 2.3 µM

Compound: CCN(CC)CCOc1cccc(C(=O)C=Cc2ccc(OCCCCCCCN(C)Cc3ccccc3)cc2)c1 [compound 13, 3-(4-((7-(Benzyl(methyl)amino)heptyl)oxy)phenyl)-1-(3-(2-(diethylamino)ethoxy)phenyl)-prop-2-en-1-one]
- IC50 [1, 7]: 0.92 ± 0.04 µM
- SI: selectivity index for AChE [2]: 0.62
- IC50 [2, 8]: 1.47 ± 0.11 µM

Compound: CCN(CC)CCCCOc1ccc(C(=O)CCc2ccc(OCCCCCCCN(C)Cc3ccccc3)cc2)cc1 [compound 18, 3-(4-((7-(Benzyl(methyl)amino)heptyl)oxy)phenyl)-1-(4-(4-(diethylamino)butoxy)phenyl)-propan-1-one]
- IC50 [1, 7]: 12.4 ± 2.4 µM
- SI: selectivity index for AChE [2]: 5.04
- IC50 [2, 8]: 2.46 ± 0.11 µM

Compound: CCN(CC)CCOc1ccc(C(=O)C=Cc2ccc(OCCCCCCCN(C)Cc3ccccc3)cc2)cc1 [compound 3, 3-(4-((7-(Benzyl(methyl)amino)heptyl)oxy)phenyl)-1-(4-(2-(diethylamino)ethoxy)phenyl)-prop-2-en-1-one]
- IC50 [1, 7]: 19.9 ± 5.5 µM
- SI: selectivity index for AChE [2]: 28.4
- IC50 [2, 8]: 0.7 ± 0.09 µM

Compound: CCN(CC)CCOc1ccc(C(=O)CCc2ccc(OCCCCCCCN(C)Cc3ccccc3)cc2)cc1 [compound 16, 3-(4-((7-(Benzyl(methyl)amino)heptyl)oxy)phenyl)-1-(4-(2-(diethylamino)ethoxy)phenyl)-propan-1-one]
- IC50 [1, 7]: 20.2 ± 1.7 µM
- SI: selectivity index for AChE [2]: 3.25
- IC50 [2, 8]: 6.21 ± 0.32 µM

Compound: CCN(CC)CCCOc1ccc(C(=O)C=Cc2ccc(OCCCCCCCN(C)Cc3ccccc3)cc2)cc1 [compound 4, 3-(4-((7-(Benzyl(methyl)amino)heptyl)oxy)phenyl)-1-(4-(3-(diethylamino)propoxy)phenyl)-prop-2-en-1-one]
- IC50 [1, 7]: 2.38 ± 0.05 µM
- SI: selectivity index for AChE [2]: 2.6
- IC50 [2, 8]: 0.92 ± 0.07 µM
- inhibition at 1.25 µM (SH-SY5Y cells [3]): 27%
- neuroprotective activity toward OAβ1–42 induced toxicity (neuronal viability) (SH-SY5Y cells [4]): partially counteracted the neurotoxic effects
- effect on GSH levels (SH-SY5Y cells [5]): significantly increased GSH levels
- concentrations that did not affect neuronal viability (SH-SY5Y cells [6]): up to 2.5 µM

Compound: CN(CCCCCCCOc1ccc(C=CC(=O)c2ccc(OCCN3CCc4ccccc4C3)cc2)cc1)Cc1ccccc1 [compound 8, 3-(4-((7-(Benzyl(methyl)amino)heptyl)oxy)phenyl)-1-(4-(2-(3,4-dihydroisoquinolin-2(1H)-yl)ethoxy)phenyl)prop-2-en-1-one]
- IC50 [1, 7]: 3.87 ± 0.3 µM
- SI: selectivity index for AChE [2]: 0.23
- IC50 [2, 8]: 16.5 ± 2.6 µM

Compound: CCN(CC)CCCOc1cccc(C(=O)C=Cc2ccc(OCCCCCCCN(C)Cc3ccccc3)cc2)c1 [compound 14, 3-(4-((7-(Benzyl(methyl)amino)heptyl)oxy)phenyl)-1-(3-(3-(diethylamino)propoxy)phenyl)-prop-2-en-1-one]
- IC50 [1, 7]: 1.82 ± 0.05 µM
- SI: selectivity index for AChE [2]: 0.31
- IC50 [2, 8]: 5.78 ± 0.67 µM

Compound: CCN(CC)CCCCOc1ccc(C(=O)C=Cc2ccc(OCCCCCCCN(C)Cc3ccccc3)cc2)cc1 [compound 5, 3-(4-((7-(Benzyl(methyl)amino)heptyl)oxy)phenyl)-1-(4-(4-(diethylamino)butoxy)phenyl)prop-2-en-1-one]
- IC50 [1, 7]: 3.7 ± 0.08 µM
- SI: selectivity index for AChE [2]: 3.5
- IC50 [2, 8]: 1.06 ± 0.08 µM

Compound: COc1ccc(C(=O)C=Cc2ccc(OCCCCCCCN(C)Cc3ccccc3)cc2)cc1 [compound 2, 3-(4-((7-(Benzyl(methyl)amino)heptyl)oxy)phenyl)-1-(4-methoxyphenyl)prop-2-en-1-one]
- IC50 [1, 7]: 2.85 ± 0.7 µM
- SI: selectivity index for AChE [2]: 0.03
- IC50 [2, 8]: 98.5 ± 8.8 µM
- inhibition at 1.25 µM (SH-SY5Y cells [3]): 16%
- neuroprotective activity toward OAβ1–42 induced toxicity (neuronal viability) (SH-SY5Y cells [4]): reinforced the neurotoxic effects
- effect on GSH levels (SH-SY5Y cells [5]): decreased GSH basal levels
- concentrations that did not affect neuronal viability (SH-SY5Y cells [6]): up to 2.5 µM

Compound: COc1cccc(C(=O)C=Cc2ccc(OCCCCCCCN(C)Cc3ccccc3)cc2)c1 [compound 12, 3-(4-((7-(Benzyl(methyl)amino)heptyl)oxy)phenyl)-1-(3-methoxyphenyl)prop-2-en-1-one]
- IC50 [1, 7]: 8.58 ± 0.35 µM
- SI: selectivity index for AChE [2]: 0.08
- IC50 [2, 8]: 105 ± 17 µM

Compound: CCN(CC)CCCOc1ccc(C(=O)CCc2ccc(OCCCCCCCN(C)Cc3ccccc3)cc2)cc1 [compound 17, 3-(4-((7-(Benzyl(methyl)amino)heptyl)oxy)phenyl)-1-(4-(3-(diethylamino)propoxy)phenyl)-propan-1-one]
- IC50 [1, 7]: 5.04 ± 0.3 µM
- SI: selectivity index for AChE [2]: 3.04
- IC50 [2, 8]: 1.66 ± 0.09 µM
- inhibition at 1.25 µM (SH-SY5Y cells [3]): 23%
- neuroprotective activity toward OAβ1–42 induced toxicity (neuronal viability) (SH-SY5Y cells [4]): No neuroprotective effect
- effect on GSH levels (SH-SY5Y cells [5]): significantly increased GSH levels
- concentrations that did not affect neuronal viability (SH-SY5Y cells [6]): up to 2.5 µM

Compound: CN(CCCCCCCOc1ccc(C=CC(=O)c2ccc(OCCN3CCOCC3)cc2)cc1)Cc1ccccc1 [compound 6, 3-(4-((7-(Benzyl(methyl)amino)heptyl)oxy)phenyl)-1-(4-(2-morpholinoethoxy)phenyl)prop-2-en-1-one]
- IC50 [1, 7]: 11 ± 0.5 µM
- SI: selectivity index for AChE [2]: 0.021
- IC50 [2, 8]: 511 ± 37 µM
- fold worse hAChE inhibition than compound 7 ([2]; morpholino vs piperidine derivative): about 500 fold

Compound: CCN(CC)Cc1ccc(C(=O)C=Cc2ccc(OCCCCCCCN(C)Cc3ccccc3)cc2)cc1 [compound 1, 3-(4-((7-(Benzyl(methyl)amino)heptyl)oxy)phenyl)-1-(4-((diethylamino)methyl)phenyl)prop-2-en-1-one]
- IC50 [1, 7]: 8.83 ± 0.58 µM
- SI: selectivity index for AChE [2]: 3.14
- IC50 [2, 8]: 2.81 ± 0.29 µM
- fold increase in hAChE inhibitory activity ([2]; methylendiethylamino group in place of the methoxy group (compounds 2, 12)): 35 fold

Compound: CN(CCCCCCCOc1ccc(C=CC(=O)c2ccc(OCCN3CCC(O)(c4ccc(Cl)cc4)CC3)cc2)cc1)Cc1ccccc1 [compound 11, 3-(4-((7-(Benzyl(methyl)amino)heptyl)oxy)phenyl)-1-(4-(2-(4-(4-chlorophenyl)-4-hydroxypiperidin-1-yl)ethoxy)phenyl)prop-2-en-1-one]
- IC50 (µM) ± SEM hBuChE ([1]; pH 8): inactive
- IC50 (µM) ± SEM hAChE ([2]; pH 8): inactive
